# Source: ChEMBL document CHEMBL4196010, “New hydrazides derivatives of isoniazid against Mycobacterium tuberculosis: Higher potency and lower hepatocytotoxicity” (Eur J Med Chem, 2018)
# Tests used:
# [1] = tested on: Mycobacterium tuberculosis; assay: Antitubercular activity against Mycobacterium tuberculosis H37Rv ATCC 27294 after 5 days by microplate alamar blue assay; type: functional; conditions: H37Rv ATCC 27294, 120 h
# Salmonella typhimurium [2] = assay: Genotoxicity in Salmonella typhimurium TA98 assessed as increase in revertant colonies at 0.5 uM preincubated for 20 mins followed by addition of top agar and minimal agar and measured after 72 hrs in presence of S9 metabolic activation system by Ames test relative to control; type: toxicity, organism-based; conditions: salmonella enterica subsp. enterica serovar typhimurium
# J774.A1 [3] = assay: Cytotoxicity against mouse J774A.1 cells assessed as decrease in cell viability at 1 nM after 20 hrs by resazurin dye-based fluorimetric method; conditions: j774.a1, 20 h, 0.001 µM
# J774.A1 [4] = assay: Cytotoxicity against mouse J774A.1 cells assessed as decrease in cell viability at 10 nM after 20 hrs by resazurin dye-based fluorimetric method; conditions: j774.a1, 20 h, 0.01 µM
# J774.A1 [5] = assay: Cytotoxicity against mouse J774A.1 cells assessed as decrease in cell viability at 100 nM after 20 hrs by resazurin dye-based fluorimetric method; conditions: j774.a1, 20 h, 0.1 µM
# J774.A1 [6] = assay: Cytotoxicity against mouse J774A.1 cells assessed as decrease in cell viability at 1 uM after 20 hrs by resazurin dye-based fluorimetric method; conditions: j774.a1, 20 h
# J774.A1 [7] = assay: Cytotoxicity against mouse J774A.1 cells assessed as decrease in cell viability at 10 uM after 20 hrs by resazurin dye-based fluorimetric method; conditions: j774.a1, 20 h
# J774.A1 [8] = assay: Cytotoxicity against mouse J774A.1 cells assessed as decrease in cell viability at 100 uM after 20 hrs by resazurin dye-based fluorimetric method; conditions: j774.a1, 20 h
# [9] = Cytotoxicity against human HepG2 cells after 3 hrs by WST-1 assay; type: cell-based; conditions: read-out: LC50
# [10] = Cytotoxicity against human HepG2 cells after 24 hrs by WST-1 assay; type: cell-based; conditions: read-out: LC50
# [11] = Selectivity index, ratio of LC50 for human HepG2 cells to MIC for Mycobacterium tuberculosis H37Rv ATCC 27294; type: toxicity; conditions: read-out: Selectivity Index
# Salmonella typhimurium [12] = assay: Genotoxicity in Salmonella typhimurium TA98 assessed as increase in revertant colonies at 0.5 uM preincubated for 20 mins followed by addition of top agar and minimal agar and measured after 72 hrs in absence of S9 metabolic activation system by Ames test relative to control; type: toxicity, organism-based; conditions: salmonella enterica subsp. enterica serovar typhimurium
# Salmonella typhimurium [13] = assay: Genotoxicity in Salmonella typhimurium TA98 assessed as increase in revertant colonies at 5 uM preincubated for 20 mins followed by addition of top agar and minimal agar and measured after 72 hrs in absence of S9 metabolic activation system by Ames test relative to control; type: toxicity, organism-based; conditions: salmonella enterica subsp. enterica serovar typhimurium
# Salmonella typhimurium [14] = assay: Genotoxicity in Salmonella typhimurium TA98 assessed as increase in revertant colonies at 50 uM preincubated for 20 mins followed by addition of top agar and minimal agar and measured after 72 hrs in absence of S9 metabolic activation system by Ames test relative to control; type: toxicity, organism-based; conditions: salmonella enterica subsp. enterica serovar typhimurium
# Salmonella typhimurium [15] = assay: Genotoxicity in Salmonella typhimurium TA98 assessed as increase in revertant colonies at 500 uM preincubated for 20 mins followed by addition of top agar and minimal agar and measured after 72 hrs in absence of S9 metabolic activation system by Ames test relative to control; type: toxicity, organism-based; conditions: salmonella enterica subsp. enterica serovar typhimurium
# Salmonella typhimurium [16] = assay: Genotoxicity in Salmonella typhimurium TA98 assessed as increase in revertant colonies at 5000 uM preincubated for 20 mins followed by addition of top agar and minimal agar and measured after 72 hrs in absence of S9 metabolic activation system by Ames test relative to control; type: toxicity, organism-based; conditions: salmonella enterica subsp. enterica serovar typhimurium
# Salmonella typhimurium [17] = assay: Genotoxicity in Salmonella typhimurium TA100 assessed as increase in revertant colonies at 0.5 uM preincubated for 20 mins followed by addition of top agar and minimal agar and measured after 72 hrs in absence of S9 metabolic activation system by Ames test relative to control; type: toxicity, organism-based; conditions: salmonella enterica subsp. enterica serovar typhimurium
# Salmonella typhimurium [18] = assay: Genotoxicity in Salmonella typhimurium TA100 assessed as increase in revertant colonies at 5 uM preincubated for 20 mins followed by addition of top agar and minimal agar and measured after 72 hrs in absence of S9 metabolic activation system by Ames test relative to control; type: toxicity, organism-based; conditions: salmonella enterica subsp. enterica serovar typhimurium
# Salmonella typhimurium [19] = assay: Genotoxicity in Salmonella typhimurium TA100 assessed as increase in revertant colonies at 50 uM preincubated for 20 mins followed by addition of top agar and minimal agar and measured after 72 hrs in absence of S9 metabolic activation system by Ames test relative to control; type: toxicity, organism-based; conditions: salmonella enterica subsp. enterica serovar typhimurium
# Salmonella typhimurium [20] = assay: Genotoxicity in Salmonella typhimurium TA100 assessed as increase in revertant colonies at 500 uM preincubated for 20 mins followed by addition of top agar and minimal agar and measured after 72 hrs in absence of S9 metabolic activation system by Ames test relative to control; type: toxicity, organism-based; conditions: salmonella enterica subsp. enterica serovar typhimurium
# Salmonella typhimurium [21] = assay: Genotoxicity in Salmonella typhimurium TA100 assessed as increase in revertant colonies at 5000 uM preincubated for 20 mins followed by addition of top agar and minimal agar and measured after 72 hrs in absence of S9 metabolic activation system by Ames test relative to control; type: toxicity, organism-based; conditions: salmonella enterica subsp. enterica serovar typhimurium
# Salmonella typhimurium [22] = assay: Genotoxicity in Salmonella typhimurium TA98 assessed as increase in revertant colonies at 5 uM preincubated for 20 mins followed by addition of top agar and minimal agar and measured after 72 hrs in presence of S9 metabolic activation system by Ames test relative to control; type: toxicity, organism-based; conditions: salmonella enterica subsp. enterica serovar typhimurium
# Salmonella typhimurium [23] = assay: Genotoxicity in Salmonella typhimurium TA98 assessed as increase in revertant colonies at 50 uM preincubated for 20 mins followed by addition of top agar and minimal agar and measured after 72 hrs in presence of S9 metabolic activation system by Ames test relative to control; type: toxicity, organism-based; conditions: salmonella enterica subsp. enterica serovar typhimurium
# Salmonella typhimurium [24] = assay: Genotoxicity in Salmonella typhimurium TA98 assessed as increase in revertant colonies at 500 uM preincubated for 20 mins followed by addition of top agar and minimal agar and measured after 72 hrs in presence of S9 metabolic activation system by Ames test relative to control; type: toxicity, organism-based; conditions: salmonella enterica subsp. enterica serovar typhimurium
# Salmonella typhimurium [25] = assay: Genotoxicity in Salmonella typhimurium TA98 assessed as increase in revertant colonies at 5000 uM preincubated for 20 mins followed by addition of top agar and minimal agar and measured after 72 hrs in presence of S9 metabolic activation system by Ames test relative to control; type: toxicity, organism-based; conditions: salmonella enterica subsp. enterica serovar typhimurium
# Salmonella typhimurium [26] = assay: Genotoxicity in Salmonella typhimurium TA100 assessed as increase in revertant colonies at 0.5 uM preincubated for 20 mins followed by addition of top agar and minimal agar and measured after 72 hrs in presence of S9 metabolic activation system by Ames test relative to control; type: toxicity, organism-based; conditions: salmonella enterica subsp. enterica serovar typhimurium
# Salmonella typhimurium [27] = assay: Genotoxicity in Salmonella typhimurium TA100 assessed as increase in revertant colonies at 5 uM preincubated for 20 mins followed by addition of top agar and minimal agar and measured after 72 hrs in presence of S9 metabolic activation system by Ames test relative to control; type: toxicity, organism-based; conditions: salmonella enterica subsp. enterica serovar typhimurium
# Salmonella typhimurium [28] = assay: Genotoxicity in Salmonella typhimurium TA100 assessed as increase in revertant colonies at 50 uM preincubated for 20 mins followed by addition of top agar and minimal agar and measured after 72 hrs in presence of S9 metabolic activation system by Ames test relative to control; type: toxicity, organism-based; conditions: salmonella enterica subsp. enterica serovar typhimurium
# [29] = tested on: Mycobacterium tuberculosis; assay: Potency index, ratio of ethambutol MIC to compound MIC for antitubercular activity against Mycobacterium tuberculosis H37Rv ATCC 27294; type: functional
# [30] = tested on: Mycobacterium tuberculosis; assay: Potency index, ratio of pyrazinamide MIC to compound MIC for antitubercular activity against Mycobacterium tuberculosis H37Rv ATCC 27294; type: functional
# [31] = tested on: Mycobacterium tuberculosis; assay: Antitubercular activity against Mycobacterium tuberculosis; type: functional
smiles,measurement,setting,value
CC(=O)Nc1ccc(C)cc1C(F)(F)C(=O)NN,MIC,[1],> 412 µM
COc1ccc(NC(C)=O)c(C(F)(F)C(=O)NNC(=O)c2ccncc2)c1,MIC,[1],33.1 µM
NNC(=O)c1ccncc1 [ISONIAZID],fold change (FC),Salmonella typhimurium [2],1.3
same,MIC,[1],0.88 µM
same,Activity,J774.A1 [3],99.5%
same,Activity,J774.A1 [4],98.2%
same,Activity,J774.A1 [5],97.3%
same,Activity,J774.A1 [6],98.7%
same,Activity,J774.A1 [7],98.5%
same,Activity,J774.A1 [8],90.3%
same,CC50 at 3 h,[9],> 200 µM
same,CC50 at 24 h,[10],105 µM
same,selectivity ratio,[11],119
same,fold change (FC),Salmonella typhimurium [12],1.5
same,fold change (FC),Salmonella typhimurium [13],1.6
same,fold change (FC),Salmonella typhimurium [14],2
same,fold change (FC),Salmonella typhimurium [15],3.7
same,fold change (FC),Salmonella typhimurium [16],4
same,fold change (FC),Salmonella typhimurium [17],1.1
same,fold change (FC),Salmonella typhimurium [18],1.2
same,fold change (FC),Salmonella typhimurium [19],1.3
same,fold change (FC),Salmonella typhimurium [20],1.6
same,fold change (FC),Salmonella typhimurium [21],1.9
same,fold change (FC),Salmonella typhimurium [22],1.3
same,fold change (FC),Salmonella typhimurium [23],1.5
same,fold change (FC),Salmonella typhimurium [24],1.6
same,Activity,Salmonella typhimurium [25],Toxic
same,fold change (FC),Salmonella typhimurium [26],1.4
same,fold change (FC),Salmonella typhimurium [27],1.4
same,Activity,Salmonella typhimurium [28],Toxic
O=C(CCl)Nc1ccccc1C(=O)C(=O)NNC(=O)c1ccncc1,MIC,[1],0.43 µM
same,Ratio,[29],30
same,Ratio,[30],1800
same,Activity,J774.A1 [3],99%
same,Activity,J774.A1 [4],98.5%
same,Activity,J774.A1 [5],97.9%
same,Activity,J774.A1 [6],96.5%
same,Activity,J774.A1 [7],98.8%
same,Activity,J774.A1 [8],63.3%
same,CC50 at 3 h,[9],> 200 µM
same,CC50 at 24 h,[10],110 µM
same,selectivity ratio,[11],256
CC(=O)Nc1ccc(C)cc1C(F)(F)C(=O)NNC(=O)c1ccncc1,MIC,[1],6.91 µM
O=C(NNC(=O)c1ccncc1)C(=O)c1ccccc1NC(=O)c1ccccc1,MIC,[1],8.04 µM
same,Activity,J774.A1 [3],100%
same,Activity,J774.A1 [4],99.4%
same,Activity,J774.A1 [5],99.8%
same,Activity,J774.A1 [6],98.2%
same,Activity,J774.A1 [7],98%
same,Activity,J774.A1 [8],86.5%
same,CC50 at 3 h,[9],> 200 µM
same,CC50 at 24 h,[10],> 200 µM
same,selectivity ratio,[11],> 25
CC(=O)NNC(=O)c1ccncc1,MIC,[1],> 559 µM
CC(=O)Nc1ccc(Cl)cc1C(F)(F)C(=O)NNC(N)=S,MIC,[31],297 µM
CC(=O)Nc1ccccc1C(F)(F)C(=O)NNC(=N)N,MIC,[1],> 351 µM
CC(=O)Nc1ccccc1C(F)(F)C(=O)NNc1ccccc1,MIC,[1],> 313 µM
CC(=O)Nc1ccc(C)cc1C(F)(F)C(=O)NNc1ccccn1,MIC,[1],> 299 µM
